Results on 1 molecule are retold here after ChEMBL document CHEMBL2074106, “Molecular cloning and tissue distribution of rat peptide transporter PEPT2” (Biochim Biophys Acta, 1996).

Molecules are shown by their SMILES.

For this assay, the target named is T1, Solute carrier family 15 member 2 (Rattus norvegicus) (UniProt Q63424).
T1 sequence (whole entry): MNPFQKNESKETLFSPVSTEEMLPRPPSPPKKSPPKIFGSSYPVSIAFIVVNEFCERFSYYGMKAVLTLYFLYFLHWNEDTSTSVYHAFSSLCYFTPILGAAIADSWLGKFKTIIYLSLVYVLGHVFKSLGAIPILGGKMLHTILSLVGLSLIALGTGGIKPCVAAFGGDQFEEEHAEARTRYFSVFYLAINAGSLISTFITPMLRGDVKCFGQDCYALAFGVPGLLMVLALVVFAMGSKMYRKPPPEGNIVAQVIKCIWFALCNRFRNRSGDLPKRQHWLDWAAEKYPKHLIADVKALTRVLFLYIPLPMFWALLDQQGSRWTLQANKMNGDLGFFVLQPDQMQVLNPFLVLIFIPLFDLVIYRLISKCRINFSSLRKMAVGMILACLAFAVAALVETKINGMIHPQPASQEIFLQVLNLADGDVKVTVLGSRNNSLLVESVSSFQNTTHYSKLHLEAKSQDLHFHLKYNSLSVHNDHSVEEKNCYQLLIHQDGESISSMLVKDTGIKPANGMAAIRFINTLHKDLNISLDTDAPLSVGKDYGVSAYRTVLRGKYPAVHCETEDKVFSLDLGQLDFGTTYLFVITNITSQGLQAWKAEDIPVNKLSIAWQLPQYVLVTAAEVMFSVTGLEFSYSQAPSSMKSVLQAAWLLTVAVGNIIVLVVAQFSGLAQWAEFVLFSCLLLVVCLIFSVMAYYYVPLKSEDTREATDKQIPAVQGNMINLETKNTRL
As to the kind of experiment: TP_TRANSPORTER: uptake in Xenopus laevis oocytes. Format: functional, cell-based. Conditions: Oocyte.

Regarding `CC(C)C[C@H](NC(=O)[C@@H](O)[C@H](N)Cc1ccccc1)C(=O)O`, the Activity entry was “substrate [+]”.
